Reference: patent US11938115B2, “Benzoselenophene-based compound, pharmaceutical composition containing same, and antibody-drug conjugate” (priority 2020, dated 2024)
Non-standard residues stand in square brackets, D forms with d. Residues, ends and D or L forms follow the SMILES beside them. *: point of attachment. Dolaproine = CO[C@@H]([C@@H]1CCCN1)[C@@H](C)C(=O)O; Dil = CC[C@H](C)[C@H](NC)[C@@H](CC(=O)O)OC; X1 = C[C@@H](N*)[C@@H](O)c1ccccc1; NMeV = CN[C@H](C(=O)O)C(C)C

Experiments:
[1] = test system: glioblastoma cell line U87MG; assay: High-throughput screening, cell viability, U87MG; format: cell-based; details: seven days after drug treatment
Description: (§1) FIG. 11A, FIG. 11B and FIG. 11C show data confirming the cell viability inhibitory effect of seven types of payloads except Compound 3 (DS-24) on the glioblastoma cell line U87MG, the multiple myeloma cell line KMS11, and the bladder cancer cell line RT112, respectively. Also, FIG. 12A, FIG. 12B, FIG. 12C, FIG. 12D, FIG. 12E and FIG. 12F show data confirming the cell viability inhibitory effect of seven types of payloads except Compound 3 (DS-24) on 6 types of cells derived from a patient with glioblastoma, respectively.
(§2) After treatment with the drug diluted to 14 different concentrations based on 20 μM as the highest concentration, it was verified whether the effect is proportional depending on the drug concentration through the concentration graph for two repeated tests. The cell viability was analyzed seven days after drug treatment to calculate IC50 that inhibits 50% of the cell viability.

[2] = test system: GBM#2 (Glioblastoma, PDC); assay: High-throughput screening, cell viability, GBM#2; format: cell-based; details: seven days after drug treatment
Description: as §1, §2

[3] = test system: GBM#1 (Glioblastoma, PDC); assay: High-throughput screening, cell viability, GBM#1; format: cell-based; details: seven days after drug treatment
Description: as §1, §2

[4] = test system: GBM#4 (Glioblastoma, PDC); assay: High-throughput screening, cell viability, GBM#4; format: cell-based; details: seven days after drug treatment
Description: as §1, §2

[5] = test system: bladder cancer cell line RT112; assay: High-throughput screening, cell viability, RT112; format: cell-based; details: seven days after drug treatment
Description: as §1, §2

[6] = test system: multiple myeloma cell line KMS11; assay: High-throughput screening, cell viability, KMS11; format: cell-based; details: seven days after drug treatment
Description: as §1, §2

[7] = test system: cell lines and cells derived from a patient with glioblastoma; assay: High-throughput screening, comparison of payloads across cell lines and brain tumor patient-derived cells; format: cell-based; details: for cell viability inhibitory effect on cells derived from a patient with glioblastoma compared to KMS11 and RT112: comparison between cells; for cell viability inhibitory effect compared with the other payloads: all cells
Description: as §1, §2

[8] = Hydrophobic interaction chromatography (HIC) analysis; format: physicochemical; details: inferred from HIC, DAR species appear as one
[9] = test system: GBM#3 (Glioblastoma, PDC); assay: High-throughput screening, cell viability, GBM#3; format: cell-based; details: seven days after drug treatment
Description: as §1, §2

[10] = test system: human ovarian cancer cells SK-OV3; assay: Cell growth inhibition assay (ATPlite), SK-OV3; format: cell-based; parameters: unit not given beside the values; details: 3 days of incubation
Description: (§3) Her2-positive human gastric cancer cells NCI-N87 and human ovarian cancer cells SK-OV3 purchased from the American Type Culture Collection (ATCC; Manassas, VA, USA) were seeded into a 384-well plate at 500 cells per well. After plating for 2 hours, the cells were treated in quadruplicate with toxins in 5-fold and 14-point serial dilution series. After 3 days of incubation at 37° C. in a 5% CO2 humidified incubator, cell viability was checked using an adenosine triphosphate monitoring system based on firefly luciferase (ATPlite™ 1step, PerkinElmer, MA, USA). IC50 values were calculated as an average of four quadruplicated tests (GraphPad Prism 5.0, CA, and USA). FIG. 13A and FIG. 13B are graphs showing the cell viability of NCI-N87 depending on the concentrations of DS-24 and DS-26, respectively, and FIG. 14A and FIG. 14B are graphs showing the cell viability of SK-OV3 depending on the concentrations of DS-24 and DS-26, respectively.

[11] = test system: B16F10 (Murine melanoma Cell line); assay: In vivo activity, B16F10 tumor volume; parameters: species or system mouse; details: 5 ug/kg, 50 ug/kg, 100 ug/kg, IV, twice a week
NCI cell lines = assay: In vitro cell line activity, NCI NTP program; format: cell-based
Description: The activity of Compound 3 was checked by requesting a sample to the NCI NTP program.
Based on the results shown in FIG. 6, it was analyzed whether there was any statistical significance in the reactivity depending on cancer types in the cell lines for which the anticancer effect was confirmed by the NCI NTP program.

[12] = test system: Her2-positive human gastric cancer cells NCI-N87; assay: Cell growth inhibition assay (ATPlite), NCI-N87; format: cell-based; parameters: unit not given beside the values; details: 3 days of incubation
Description: as §3

COc1cc2cc(c1Cl)N(C)C(=O)C[C@H](OC(=O)[C@H](C)N(C)C(=O)CCS)[C@]1(C)O[C@H]1[C@H](C)[C@@H]1C[C@@](O)(NC(=O)O1)[C@H](OC)/C=C/C=C(\C)C2 [DM1]
IC50 [1]: 13.3 nM
IC50 [2]: 95.9 nM
IC50 [3]: 133 nM
IC50 [4]: 92.1 nM
IC50 [5]: 0.0431 nM
IC50 [6]: 0.0441 nM
cell viability inhibitory effect on cells derived from a patient with glioblastoma compared to KMS11 and RT112 [7]: remarkable decrease in the cell viability inhibitory effect

CC[C@H](C)[C@@H]([C@@H](CC(=O)N1CCC[C@H]1[C@H](OC)[C@@H](C)C(=O)N[C@H](C)[C@@H](O)c1ccccc1)OC)N(C)C(=O)[C@@H](NC(=O)[C@@H](NC)C(C)C)C(C)C [MMAE] (H-[NMeV]V[Dil][Dolaproine]-X1)
IC50 [1]: 3.39 nM
IC50 [2]: 15 nM
IC50 [3]: 51.6 nM
IC50 [4]: 53.3 nM
IC50 [5]: 0.259 nM
IC50 [6]: 0.153 nM
cell viability inhibitory effect on cells derived from a patient with glioblastoma compared to KMS11 and RT112 [7]: remarkable decrease in the cell viability inhibitory effect

COc1ccc2c(OC(=O)N(CCN(C)C(=O)OCc3ccc(O[C@@H]4O[C@@H](C(=O)O)[C@H](OC(C)=O)[C@@H](OC(C)=O)[C@@H]4OC(C)=O)cc3)Cc3cn(CCOCCOCCOCCNC(=O)CCN4C(=O)C=CC4=O)nn3)cc3c(c2c1)[C@H](CCl)CN3C(=O)c1cc2cc(NC(=O)CCN3CCOCC3)ccc2[se]1 [Compound 3-3, (2R,3R,4R,5S,6S)-3,4,5-triacetoxy-6-(4-((((2-(((((S)-1-(chloromethyl)-8-methoxy-3-(5-(3-morpholinopropanamido)benzo[b]selenophene-2-carbonyl)-2,3-dihydro-1H-benzo[e]indol-5-yl)oxy)carbonyl)((1-(15-(2,5-dioxo-2,5-dihydro-1H-pyrrol-1-yl)-13-oxo-3,6,9-trioxa-12-azapentadecyl)-1H-1,2,3-triazol-4-yl)methyl)amino)ethyl)(methyl)carbamoyl)oxy)methyl)phenoxy)tetrahydro-2H-pyran-2-carboxylic Acid]
polarity and water solubility [8]: very high polarity and a good water solubility

COc1ccc2c(O)cc3c(c2c1)[C@H](CCl)CN3C(=O)c1cc2cc(NC(=O)CCN3CCOCC3)ccc2[se]1 [Compound 3, (S)—N-(2-(1-(chloromethyl)-5-hydroxy-8-methoxy-2,3-dihydro-1H-benzo[e]indole-3-carbonyl)benzo[b]selenophen-5-yl)-3-morpholinopropanamide]
IC50 ([9]; GBM3, 168 h): 0.0313 nM
IC50 ([1]; Homo sapiens, U-87 MG, 168 h): 0.0339 nM
AUC (area under the curve), SK-OV3 [10]: 160
IC50 ([2]; GBM2, 168 h): 0.0264 nM
IC50 ([3]; GBM1, 168 h): 0.98 nM
IC50 ([4]; 168 h): 0.215 nM
IC50 ([5]; Homo sapiens, RT-112, 168 h): 0.00837 nM
in vivo activity (tumor volume) [11]: in vivo activity even at a very low concentration
TGI, sensitivity difference between cancer types (NCI cell lines; non-small cell lung cancer, CNS cancer and melanoma compared to leukemia): tumor growth inhibition effect
activity by cancer type (NCI cell lines; non-small lung cancer, CNS cancer, melanoma, renal cancer): remarkably strong activity
GI50 (Growth Inhibition 50%) (NCI cell lines; several cell lines): pM or less
IC50 ([6]; Homo sapiens, KMS-11, 168 h): 0.0122 nM
cell viability inhibitory effect compared with the other payloads [7]: highest cell viability inhibitory effect among the compared materials
AUC (area under the curve), NCI-N87 [12]: 277

CCc1c2c(nc3ccc(O)cc13)-c1cc3c(c(=O)n1C2)COC(=O)[C@]3(O)CC [SN-38]
IC50 [9]: 131 nM
IC50 [1]: 67.8 nM
IC50 [2]: 97 nM
IC50 [3]: 128 nM
IC50 [4]: 146 nM
IC50 [5]: 15.6 nM
IC50 [6]: 169 nM
cell viability inhibitory effect compared with the other payloads [7]: lower cell viability inhibitory effect than the other payloads

CC[C@H](C)[C@@H]([C@@H](CC(=O)N1CCC[C@H]1[C@H](OC)[C@@H](C)C(=O)N[C@@H](Cc1ccccc1)C(=O)O)OC)N(C)C(=O)[C@@H](NC(=O)[C@@H](NC)C(C)C)C(C)C [MMAF] (HELM PEPTIDE1{[meV].V.[CC[C@H](C)[C@@H]([C@@H](CC(=O)[*:2])OC)N(C)[*:1]].[CO[C@H]([C@@H](C)C(=O)[*:2])[C@@H]1CCCN1[*:1]].F}$$$$V2.0)
IC50 [9]: 31100 nM
IC50 [1]: 353 nM
IC50 [2]: 1360 nM
IC50 [3]: 16900 nM
IC50 [4]: 8860 nM
IC50 [5]: 112 nM
IC50 [6]: 91.4 nM
cell viability inhibitory effect on cells derived from a patient with glioblastoma compared to KMS11 and RT112 [7]: remarkable decrease in the cell viability inhibitory effect

COc1cc2cc(c1Cl)N(C)C(=O)C[C@H](OC(=O)[C@H](C)N(C)C(=O)CCC(C)(C)S)[C@]1(C)O[C@H]1[C@H](C)[C@@H]1C[C@@](O)(NC(=O)O1)[C@H](OC)/C=C/C=C(\C)C2 [DM4]
IC50 [1]: 1.51 nM
IC50 [2]: 53.1 nM
IC50 [3]: 29.8 nM
IC50 [4]: 8.15 nM
IC50 [5]: 0.0202 nM
IC50 [6]: 0.0229 nM
cell viability inhibitory effect on cells derived from a patient with glioblastoma compared to KMS11 and RT112 [7]: remarkable decrease in the cell viability inhibitory effect
